Experimental findings from patent US10849875B2, “Cancer specific lipid targeted peptidomimetics” (University of Houston System, priority 2015, dated 2020) are described below.

Series [1] in a line: Lipid ELISA-like binding assay. How it is done: The direct binding of PPS1 to PS was tested. An ELISA-like assay was used. Two main lipids typically found on cell membrane, PS and PC, were immobilized separately on a 96-well plates and biotinylated PPS1 was incubated at an increasing concentration gradient. Presence of bound PPS1 was detected by HRP-streptavidin after appropriate blocking and washing. (FIG. 11A), PC was selected as the control because it is the most abundant neutral phospholipid found in the outer leaflet of the normal cell membranes. […] This indicates […] has specificity to PS over PC.
ELISA binding assay on PS and PC: PS and PC (Avanti Polar Lipids) were dissolved in hexane at 10 μg/ml concentration and added to Immulon 1B “U” bottom microtiter plates (Thermo) 50 μl/well. hexane was allowed to evaporate at room temp (in the hood). Plates were blocked by adding 200 μl 1% BSA in PBS to each well and incubated for 1 hour. Each well was washed with 3× w/200 μl PBS. Serial dilutions (0.5 μM to 0.0078 μM) of biotinylated PPS1 and PPS2 were dissolved in blocking buffer (100 μl/well) and incubated for 1 hr on shaker. Washed 5× w/200 μl PBS. Added 100 μl streptavidin-HRP (1:2000 in blocking buffer) to each well and incubated for 30 min. […] Stopped the reaction with 100 μl 0.18M H2SO4 Read OD at 490 nm.
Since PS is selectively exposed on the surface of HCC4017 cells compared with HBEC30KT, it was examined if PPS1D1 (FIG. 9B and FIG. 72) binds to PS directly. In an ELISA-like assay, PS and PC were coated separately on 96-well plates, biotinylated PPS1D1 (FIG. 65) was introduced in a concentration gradient and the bound compound was detected using standard streptavidin-HRP system.
Lipids (Avanti Polar Lipids) were dissolved in hexane at 10 μg/ml and coated on to Immulon 1B “U” bottom microtiter plates (ThermoFisher, MA). […] Plates were washed with 5× PBS and binding was detected with streptavidin-HRP (1:2000 in blocking buffer) followed by 100 μl OPD (Sigma-Aldrich). The reaction was stopped with 100 μl 0.18M H2SO4 and absorbance was read at 490 nm using the spectrophotometer (Spectramax i3, Molecular Devices, CA).

Series [2] concerns HCC4017, H460, H358, H441, H1819, H1993, H2122, MD-MB-231 and PC3 cells. Put plainly: In vitro cancer cell killing (MTS cell viability assays and FACS studies). It is filed as cell-based, human. Conditions: lung, breast and prostate cancer cells. The text has this: Various derivatives of PPS1 have been developed that have similar and improved activities. FIGS. 15-22, 36-51.
(Tetrazolium assays rely on reduction of a dye to a coloured formazan, in cell work by metabolically active cells.)

A further series concerns HBEC30KT cells. Put plainly: Cell staining with Hoechst 33342 and propidium iodide (membrane integrity). Type of series: cell-based, human. Conditions: 20 μM. How it is done:
(§1) It was evaluated how PPS1D1 affects viability of these PS expressing cancer cell lines. While there are difficulties of narrowing down the exact mechanism of action of a compound targeting cell membrane lipids, whether PPS1D1 has any effect on cell membrane integrity was evaluated. Cells were treated with standard DNA staining dyes Propidium iodide (PI) and Hoechst 33342. While both bind DNA, only Hoechst is cell permeable. Therefore, when treating live cells only Hoechst will stain the nucleus while PI will stain the nucleus only if the cell membrane integrity is compromised. All the lung cancer cell lines and normal HBEC30KT cells were treated with these dyes in the presence of PPS1D1 (at 1 μM and 20 μM) or a control compound PC462D1 at 20 μM and evaluated fluorescence by microscopy without fixation. […] These observations indicate that 20 μM PPS1D1 is selectively cytotoxic to PS-positive lung cancer cells.
(§2) 10,000 cells of HCC4017, H460, HCC95, H1693,H1395 and HBEC30KT were plated on chamber slides (Lab-Tek, Thermo Fisher, MA). On second day, cells were treated with PPS (1 μM and 20 μM), control PC462D1 (20 μM) and 0.005% Benzalkonium chloride (BAC) in RPMI medium with 10% FBS containing 3% BSA (KSFM media with 3% BSA for HBEC30KT). Chamber slides were washed with PBS three times. Cells were then stained with Hoechst 33342 (10 μg/ml) for 30 min in dark. Chamber slides were washed with 3× PBS. Cells were then stained with propidium iodide (1 mg/ml) for 15 mins. Cells were washed with 3× PBS and imaged using Fluorescence Microscope (Olympus BX-53).

The test system of series [3] is HCC4017, H460, HCC95, H1693, H1395 lung cancer cell lines. Described as above. Type of series: cell-based, human. How it is done:
as §1, §2

The next series concerns HCC4017 xenografts. Put plainly: Tumor burden effect on HCC4017 xenografts. Conditions: initial data, heterogeneous tumors. Type of series: in vivo, mice. How it is done:
The actual tumor burden effects of PPS1D1 on HCC4017 xenografts were studied. The study was planned with 4 groups. […] It took a long time to grow and created a very heterogeneous xenograft population. PPS1D1 treatment was performed, but due to the high heterogeneity of the tumors, most of the mice in every group had to be sacrificed as they reached the maximum allowed limits.

The nature of a further series: MTD studies of PPS1D1. On the set-up: species or system mice. The settings on record: mouse, in vivo. How it is done: […] (MTD) studies were performed by injecting PPS1D1 into mice. […] In vivo localization studies were performed with biotinylated versions of PPS1D1 and PC462D1. Animals were injected intravenously with 100 μL of biotinylated PPS1D1 or PC462D1 (500 μg/mL) and sacrificed at 1 and 4 h post injection. Tissue was collected, snap frozen, and sectioned and the presence of the PPS1D1 and PC462D1 determined by streptavidin-Cy3.

The structures appear in SMILES notation. Positions of bridges follow the written chain, without caps; N, C: chain ends. Non-standard residues stand in square brackets, D forms with d. Residues, ends and D or L forms follow the SMILES beside them. Chains are numbered I, II in the order given. Gly(N-piperonyl) = O=C(O)CNCc1ccc2c(c1)OCO2; N(4-MeOBn)Gly = COc1ccc(CNCC(=O)O)cc1; Nrpe = C[C@@H](NCC(=O)O)c1ccccc1; Nlys = NCCCCNCC(=O)O

Procedure for H460 cells: Before moving to animal studies with PPS1D1, comprehensive validation of cytotoxic effect of PPS1D1 on H460 was performed (Fig: 13). The PS expression levels of H460 using FITC-Annexin V staining detected by FACS was checked. […] A magnetic bead pull down, cell proliferation assay, and flow cytometry were performed on the H460 cell line. PPS1D1 coated magnetic beads were incubated with the H460 cell line for 30 minutes. The supernatant was removed by immobilizing beads on side of the tube with a magnet. The number of cells bound to beads were counted with a hemocytometer. […] Cell proliferation assays on a H460 cell line were performed by treating them with PPS1D1, PPS1, and the control compound, PC462D1. […] Binding and cytotoxicity of fluoresceinated PPS1D1 was examined using flow cytometry. Efficiency of PPS1D1 cytotoxicity on H460 cancer cells at different concentrations with 1 hour incubation with PPS1D1 was examined. Assays were performed to determine whether there were cells that were double positive for FITC (bound to PPS1D1) and PI, to evaluate cell viability. […]
Experimental procedure 10: MTS viability assay on H460 cells. […] On day 5, 20 μl of CellTiter 96® AQueous One Solution Cell Proliferation Assay (Promega, Wis.) was added to each well and absorbance was measured at 490 nm using a plate reader 2 hours after treatment.

In the case of `COc1ccc(CN(CC(=O)N(CCCCN)CC(=O)N[C@@H](CCCCN)C(=O)N[C@H](CCCCN)C(=O)N[C@@H](CCSC)C(=O)NCCCC[C@H](NC(=O)[C@H](CCSC)NC(=O)[C@@H](CCCCN)NC(=O)[C@H](CCCCN)NC(=O)CN(CCCCN)C(=O)CN(Cc2ccc(OC)cc2)C(=O)CN(C(=O)CN(Cc2ccc3c(c2)OCO3)C(=O)CN[C@H](C)c2ccccc2)[C@H](C)c2ccccc2)C(N)=O)C(=O)CN(C(=O)CN(Cc2ccc3c(c2)OCO3)C(=O)CN[C@H](C)c2ccccc2)[C@H](C)c2ccccc2)cc1` [PPS1D1] (I: H-[Nrpe][Gly(N-piperonyl)][Nrpe][N(4-MeOBn)Gly][Nlys]K[dK]MK-NH2 / II: H-[Nrpe][Gly(N-piperonyl)][Nrpe][N(4-MeOBn)Gly][Nlys]K[dK]M; amide I:9-II:C; N-terminus assumed), the “binding to PC” value in series [1] (PC-coated ELISA plates) is given as “very high specificity over the PC”. Further, in series [1] (PS-coated ELISA plates), the “binding to PS” value was “strongest affinity”. This compound showed a Kd in series [1] (PS-coated ELISA plates, biotinylated compound, streptavidin-HRP) of roughly 55 nM. For the same compound, the “in vitro cancer cell killing activity” value in series [2] is “strong in vitro cancer cell killing activity”. Also, in the series on HBEC30KT cells, the “PI staining of normal HBEC30KT cells” value is on record as “not observed”. Besides, the “PI / Hoechst staining of lung cancer cells” value in series [3] (1 μM) is given as “only show staining with Hoechst dye”; in series [3] (20 μM) it was “staining of cells with PI”. For the same compound, in the series with H460 cells (MTS / cell proliferation, increasing concentrations), the “effect on H460 cells” value is “very potent in inhibiting growth”. The “concentration at which most cytotoxicity was seen” value with H460 cells (cell proliferation assay, H460) is no less than 10 µM. For the same compound, the tumor growth result in the series on HCC4017 xenografts is recorded as “capable of reducing the tumor growth”. The MTD in “MTD studies of PPS1D1” (mice bearing subcutaneous HCC4017 xenografts) was determined as 1 mg/kg; in “MTD studies of PPS1D1” (nontumor bearing animals) it was 5 mg/kg.

One may read the Kd as the equilibrium constant for the complex coming apart. High values mean lower affinity, low ones higher affinity.
